Data reported in ChEMBL document CHEMBL6078647 (J Med Chem, 2024).
Blank lines part the entries; values can stand above or below the molecule they belong to. Calls of active or inactive are those of the source. The calls are words filed in the database; no cut-off is given here. Peptide text beside a SMILES is read from it. * marks the point of attachment. X1 = C[N+]1=C(/C=C/C=C2\N(CCCCCC(=O)*)c3ccccc3C2(C)C)C(C)(C)c2ccccc21

Legend:
Cerebral artery [1] = assay: Vaso-constriction activity in male wistar rat middle cerebral artery assessed as arterial contraction at 1 uM in presence of losartan; format: functional, tissue-based
[2] = Fluorescence property of compound in HEPES buffer assessed as quantum yield; format: physicochemical
[3] = biological target: T1, Type-1 angiotensin II receptor (Homo sapiens) (UniProt P30556); assay: (§1) Agonist activity at Flag-tagged AT1R (unknown origin) extracted from HEK293T cell membrane co expressing YPET-ARRB1 assessed as beta-arrestin 1 recruitment using NanoGlo as substrate preincubated for 30 mins followed by substrate addition for 10 mins by BRET assay; format: functional, cell membranes
T1 sequence (whole entry): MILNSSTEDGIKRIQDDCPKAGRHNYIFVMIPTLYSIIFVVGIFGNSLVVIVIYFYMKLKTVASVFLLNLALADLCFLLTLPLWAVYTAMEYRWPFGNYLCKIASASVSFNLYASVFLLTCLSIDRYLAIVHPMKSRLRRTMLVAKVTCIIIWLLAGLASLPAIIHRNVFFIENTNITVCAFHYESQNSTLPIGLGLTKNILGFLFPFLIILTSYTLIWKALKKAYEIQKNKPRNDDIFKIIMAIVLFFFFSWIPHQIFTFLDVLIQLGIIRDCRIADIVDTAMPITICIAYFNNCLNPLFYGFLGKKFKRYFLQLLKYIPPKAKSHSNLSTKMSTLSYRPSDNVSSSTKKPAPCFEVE

[4] = biological target: T1, Type-1 angiotensin II receptor (Homo sapiens); assay: (§2) Agonist activity at Flag-tagged AT1R (unknown origin) extracted from HEK293 cell membrane co expressing YPET-ARRB2 assessed as beta-arrestin 2 recruitment using NanoGlo as substrate preincubated for 30 mins followed by substrate addition for 10 mins by BRET assay; format: functional, cell membranes
[5] = biological target: T1, Type-1 angiotensin II receptor (Homo sapiens); assay: Induction of human NLuc-tagged AT1R (unknown origin) internalization in HEK293 cells co expressing venus-MP using NanoGlo as substrate preincubated for 30 mins followed by substrate addition for 10 mins by BRET assay; format: functional
[6] = biological target: T1, Type-1 angiotensin II receptor (Homo sapiens); assay: Induction of human NLuc-tagged AT1R (unknown origin) internalization in HEK293 cells co expressing venus-MP assessed as inhibition of AgII-induced AT1R internalization using NanoGlo as substrate preincubated for 30 mins followed by substrate addition for 10 mins by BRET assay; format: functional
[7] = biological target: T2, Type-1 angiotensin II receptor (Homo sapiens, UniProt P30556); assay: Antagonist activity at Flag-tagged AT1R (unknown origin) extracted from HEK293 cell membrane co expressing YPET-ARRB1 assessed as beta-arrestin 1 recruitment using NanoGlo as substrate preincubated for 30 mins followed by substrate addition for 10 mins by BRET assay; format: functional, cell membranes
T2 sequence (P30556 whole entry): T1 sequence (whole entry)

[8] = biological target: T1, Type-1 angiotensin II receptor (Homo sapiens); assay: Binding affinity to human GFP-tagged AT1R (unknown origin) extracted from HEK293 cell membrane assessed as colocalization of AT1R in plasma membrane at 30 nM preincubated with losartan at 10 uM followed by compound addition for 30 mins by epifluorescence microscopic analysis; format: cell membranes; conditions: filed as antagonist
[9] = biological target: T2, Type-1 angiotensin II receptor; assay: Antagonist activity at Flag-tagged AT1R (unknown origin) extracted from HEK293 cell membrane co expressing YPET-ARRB2 assessed as beta-arrestin 2 recruitment using NanoGlo as substrate preincubated for 30 mins followed by substrate addition for 10 mins by BRET assay; format: functional, cell membranes
[10] = biological target: T3, Type-2 angiotensin II receptor (Homo sapiens, UniProt P50052); assay: Binding affinity to human AT2R extracted from HEK293T cell membrane assessed as inhibition constant in presence of [125I][Sar1 Ile8]-angiotensin II by competitive radioligand binding assay; format: cell membranes
T3 sequence (P50052 whole entry): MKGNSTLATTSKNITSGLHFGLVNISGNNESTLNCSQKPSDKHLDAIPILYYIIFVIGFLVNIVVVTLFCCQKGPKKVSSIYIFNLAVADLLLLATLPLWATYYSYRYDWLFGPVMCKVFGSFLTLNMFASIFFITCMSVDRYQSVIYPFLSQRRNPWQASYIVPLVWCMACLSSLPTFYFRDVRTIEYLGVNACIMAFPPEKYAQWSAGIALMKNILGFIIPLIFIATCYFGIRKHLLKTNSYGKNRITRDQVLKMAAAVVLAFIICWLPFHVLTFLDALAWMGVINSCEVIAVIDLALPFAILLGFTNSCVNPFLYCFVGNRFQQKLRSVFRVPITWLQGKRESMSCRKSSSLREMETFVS

[11] = biological target: T2, Type-1 angiotensin II receptor; assay: Binding affinity to GFP-tagged AT1R (unknown origin) extracted from HEK293 cell membrane assessed as dissociation constant; format: cell membranes
[12] = biological target: T1, Type-1 angiotensin II receptor (Homo sapiens); assay: Binding affinity to Flag-tagged AT1R (unknown origin) extracted from HEK293 cell membrane assessed as increase in median red fluorescence intensity at 1 nM incubated for 15 mins by flow cytometric analysis; format: cell membranes; conditions: filed as antagonist
Homo sapiens = species on record: Homo sapiens; assay: Selectivity index, ratio of Ki for binding affinity to human AT2R extracted from HEK293T cell membrane in presence of [125I][Sar1 Ile8]-angiotensin II by competitive radioligand binding assay to Ki for binding affinity to human AT1R extracted from HEK293T cell membrane in presence of [125I][Sar1 Ile8]-angiotensin II by competitive radioligand binding assay
[13] = biological target: T2, Type-1 angiotensin II receptor; assay: Binding affinity to human AT1R extracted from HEK293T cell membrane assessed as inhibition constant in presence of [125I][Sar1 Ile8]-angiotensin II by competitive radioligand binding assay; format: cell membranes; conditions: read-out: Ki
[14] = biological target: T1, Type-1 angiotensin II receptor (Homo sapiens); assay: Binding affinity to Flag-tagged AT1R (unknown origin) extracted from HEK293 cell membrane assessed as increase in median red fluorescence intensity at > 30 nM incubated for 30 mins by flow cytometric analysis; format: cell membranes
[15] = biological target: T4, Type-2 angiotensin II receptor (Homo sapiens) (UniProt P50052); assay: Binding affinity to GFP-tagged AT2R (unknown origin) extracted from HEK293 cell membrane assessed as fluorescent signal in plasma membrane incubated for 15 mins by confocal microscopic analysis; format: cell membranes
T4 sequence (whole entry): T3 sequence (P50052 whole entry)

[16] = biological target: T2, Type-1 angiotensin II receptor; assay: Antagonist activity at Flag-tagged AT1R (unknown origin) extracted from HEK293 cell membrane assessed as increase in intracellular calcium incubated for 30 mins by microplate reader analysis; format: functional, cell membranes
[17] = biological target: T1, Type-1 angiotensin II receptor (Homo sapiens); assay: Binding affinity to GFP-tagged AT1R (unknown origin) extracted from HEK293 cell membrane assessed as fluorescent signal in plasma membrane incubated for 15 mins by confocal microscopic analysis; format: cell membranes; conditions: filed as antagonist
Cerebral artery [18] = assay: Vaso-constriction activity in male wistar rat middle cerebral artery assessed as arterial contraction at 10 nM; format: functional, tissue-based
Cerebral artery [19] = assay: Vaso-constriction activity in male wistar rat middle cerebral artery assessed as arterial contraction at 1 uM; format: functional, tissue-based
[20] = biological target: T1, Type-1 angiotensin II receptor (Homo sapiens); assay: Binding affinity to human GFP-tagged AT1R (unknown origin) extracted from HEK293 cell membrane assessed as colocalization of AT1R in endocytic vesicles at 50 nM incubated for 30 mins by epifluorescence microscopic analysis; format: cell membranes; conditions: filed as agonist
[21] = biological target: T1, Type-1 angiotensin II receptor (Homo sapiens); assay: as §2, with “recruitment at 1 uM by measuring maximum efficacy” for “recruitment”; format: functional, cell membranes; conditions: filed as agonist
[22] = biological target: T4, Type-2 angiotensin II receptor (Homo sapiens); assay: Binding affinity to human GFP-tagged AT2R extracted from HEK293 cell membrane assessed as colocalization of AT2R in plasma membrane at 50 nM incubated for 30 mins by epifluorescence microscopic analysis; format: cell membranes; conditions: filed as agonist
[23] = biological target: T1, Type-1 angiotensin II receptor (Homo sapiens); assay: as §1, with “HEK293” for “HEK293T”, “recruitment at 1 uM by measuring maximum efficacy” for “recruitment”; format: functional, cell membranes; conditions: filed as agonist
[24] = biological target: T1, Type-1 angiotensin II receptor (Homo sapiens); assay: Agonist activity at AT1R (unknown origin) extracted from HEK293 cell membrane coexpressing NLuc and Venus-miniG assessed as miniGq protein recruitment at 1 uM using NanoGlo as substrate preincubated for 30 mins followed by substrate addition for 10 mins by BRET assay; format: functional, cell membranes; conditions: time 40.0 min
Cerebral artery [25] = assay: Vaso-constriction activity in male wistar rat middle cerebral artery assessed as arterial contraction; format: functional, tissue-based

Activity [2]: 0.101
Activity ([3]; HEK293): inactive
Activity [4]: inactive
Activity [5]: inactive
Structure (SMILES): CC[C@H](C)[C@H](NC(=O)[C@@H](NC(=O)[C@H](CC(=O)O)NC(=O)[C@@H]1CCCN1C(=O)[C@H](Cc1c[nH]cn1)NC(=O)[C@H](Cc1ccccc1)NC(=O)[C@H](Cc1ccc(O)cc1)NC(=O)CCCCCN1/C(=C\C=C\C2=[N+](C)c3ccccc3C2(C)C)C(C)(C)c2ccccc21)C(C)C)C(=O)N[C@@H](CCCNC(=N)N)C(=O)O (X1-YFHPDVIR-OH)
Activity (Cerebral artery [1]): Active

Activity [6]: Dose-dependent-effect
EC50 [7]: Active
Activity [2]: 0.232
Activity [8]: Active
EC50 [9]: Active
Ki ([10]; read-out: Ki): 5.57 µM
Ki ([10]; read-out: pKi (converted)): 3.02 µM
Kd [11]: ~30 nM
Activity [12]: Active
Ratio Ki (Homo sapiens): 521
Ki [13]: 10.7 nM
Activity [14]: inactive
Activity [15]: inactive
EC50 [16]: Active
Activity [17]: Active
Structure (SMILES): CCCCc1nc(Cl)c(C(=O)NCCOCCOCCNC(=O)CCCCCN2/C(=C/C=C/C3=[N+](C)c4ccccc4C3(C)C)C(C)(C)c3ccccc32)n1Cc1ccc(-c2ccccc2-c2nn[nH]n2)cc1.F[B-](F)(F)F

Activity [2]: 0.08
Structure (SMILES): CC[C@H](C)[C@H](NC(=O)[C@H](Cc1ccc(O)cc1)NC(=O)[C@@H](NC(=O)[C@H](CCCNC(=N)N)NC(=O)[C@H](CC(=O)O)NC(=O)CCCCCN1/C(=C\C=C\C2=[N+](C)c3ccccc3C2(C)C)C(C)(C)c2ccccc21)C(C)C)C(=O)N[C@@H](Cc1c[nH]cn1)C(=O)N1CCC[C@H]1C(=O)N[C@@H](Cc1ccccc1)C(=O)O
Activity (Cerebral artery [18]): Active
Activity (Cerebral artery [19]): Active

Activity [20]: Active
Emax [21]: 0.043 a.u.
Activity ([3]; HEK293, filed as agonist): Dose-dependent-effect
Activity ([4]; filed as agonist): Dose-dependent-effect
Activity [22]: Active
Emax [23]: 0.031 a.u.
Activity [24]: inactive
Activity ([5]; filed as agonist): Active
Structure (SMILES): CC[C@H](C)[C@H](NC(=O)[C@H](Cc1ccc(O)cc1)NC(=O)[C@@H](NC(=O)[C@H](CCCN=C(N)N)NC(=O)CNC)C(C)C)C(=O)N[C@@H](Cc1c[nH]cn1)C(=O)N1CCC[C@H]1C(=O)N[C@@H](C)C(=O)O
Activity (Cerebral artery [25]): inactive
